The values below are quoted from earlier work in patent publication US20040175342A1, “Process of making and using composition containing oxidation-sensitive hydrophilic active principle and maleic anhydride copolymer” (L'OREAL, priority 2002, published 2004).

Data set [1] concerns reconstructed epidermides.
In data set [2] the test system is keratinocytes.
Data set [3] relates to reconstructed epidermides. Conditions: after treatment.

Regarding `O=C1O[C@H]([C@@H](O)CO)C([O-])=C1OP(=O)([O-])[O-].O=C1O[C@H]([C@@H](O)CO)C([O-])=C1OP(=O)([O-])[O-].[Mg+2].[Mg+2].[Mg+2]` [magnesium ascorbyl phosphate], the bioavailability result is reported as “very low”. For the same compound, in data set [1], the synthesis of ceramides entry is “this effect has also been demonstrated”.
As for `O=C1O[C@H]([C@@H](O)CO)C(O)=C1O[C@H]1O[C@H](CO)[C@@H](O)[C@H](O)[C@H]1O` [ascorbyl glucoside], the synthesis of ceramides result in data set [1] is “this effect has also been demonstrated”.
As to `O=C1O[C@H]([C@@H](O)CO)C(O)=C1O` [Ascorbic acid, ascorbic acid], in data set [2], the “effect on differentiation of keratinocytes” value is on record as “prodifferentiating effect”. Besides, in data set [1], the synthesis of ceramides entry is on record as “increase”. Also, the “barrier function of reconstructed epidermides” value in data set [3] was “improved”.
